In ChEMBL document CHEMBL5325414, “Novel neuroprotective pyromeconic acid derivatives with concurrent anti-Aβ deposition, anti-inflammatory, and anti-oxidation properties for treatment of Alzheimer's disease” (Eur J Med Chem, 2023):
Active and inactive are the calls of the source. The rule behind the calls is not given here.

Key:
[1] = MRT(0 to t) in Sprague-Dawley rat at 15 mg/kg, IG; type: ADME, organism-based; conditions: in vivo, po
Mus musculus [2] = assay: Neuroprotective effect in scopolamine induced cognitively impaired mouse assessed as recovery of decreased Nissl bodies in CA1 region at hippocampus at 20 mg/kg by Nissl staining analysis; type: functional, organism-based
[3] = target: T1, Amyloid-beta precursor protein (Homo sapiens, UniProt P05067); assay: Inhibition of amyloid beta (1 to 42) (unknown origin) self aggregation assessed as disaggregation
[4] = Ratio of drug concentration in hippocampus to plasma of Sprague-Dawley rat at 15 mg/kg, IG measured after 0.083 hrs; type: ADME, organism-based; conditions: po
Mus musculus [5] = assay: Anti alzheimer activity in scopolamine induced anxiety in ICR mouse assessed as decrease in motor trajectories pretreated with scopolamine at 3 mg/kg, ip for 31 days followed by compound addition at 20 mg/kg, po at day 7 to 31 by morris water maze test; type: functional, organism-based; conditions: time 25.0 day
Mus musculus [6] = assay: In vivo antiinflammatory activity in scopolamine induced cognitive impaired ICR mouse assessed as decrease in IL-1 levels in cortex; type: functional, organism-based
BV-2 [7] = assay: Effect of amyloid beta (1 to 42) indued apoptosis in mouse BV-2 cells assessed as necrotic cells at 5 uM measured by propidium iodide staining based flow cytometric analysis (reference value: 5.72%); type: functional
[8] = Drug concentration in hippocampus of Sprague-Dawley rat at 15 mg/kg, IG measured after 2 hrs; type: ADME, organism-based; conditions: po, read-out: Drug uptake
[9] = Acute toxicity in mouse assessed as histopathological change in brain at 2000 mg/kg, IG administered as single dose measured after 14 days measured by H and E staining analysis; type: organism-based; conditions: in vivo, po, 336 h, time 14 day
Mus musculus [10] = assay: Neuroprotective effect in scopolamine induced cognitively impaired mouse assessed as decrease in neuronal damage in CA1 region at hippocampus at 20 mg/kg by immunofluorescence staining analysis; type: functional, organism-based
BV-2 [11] = assay: Effect of amyloid beta (1 to 42) indued apoptosis in mouse BV-2 cells assessed as viable cells at 2.5 uM measured by propidium iodide staining based flow cytometric analysis (reference value: 61.29%); type: functional; conditions: read-out: Activity
BV-2 [12] = assay: Neuroprotective activity against amyloid beta (1 to 42) induced neurotoxicity in mouse BV-2 cells assessed as survival of cells at 2.5 uM treated for 24 hrs relative to control; type: functional
[13] = Drug concentration in hippocampus of Sprague-Dawley rat at 15 mg/kg, IG measured after 0.5 hrs; type: ADME, organism-based; conditions: po, read-out: Drug uptake
[14] = Drug concentration in plasma of Sprague-Dawley rat at 15 mg/kg, IG measured after 0.25 hrs; type: ADME, organism-based; conditions: po
Mus musculus [15] = assay: Neuroprotective effect in scopolamine induced cognitively impaired mouse assessed as recovery of decreased Nissl bodies in CA3 region at hippocampus at 20 mg/kg by Nissl staining analysis; type: functional, organism-based
Mus musculus [16] = assay: Anti alzheimer activity in scopolamine induced anxiety in ICR mouse assessed as improved cognitive function pretreated with scopolamine at 3 mg/kg, ip for 31 days followed by compound addition at 20 mg/kg, po at day 7 to 31 by morris water maze test; type: functional, organism-based; conditions: time 25.0 day
[17] = Ratio of drug concentration in hippocampus to plasma of Sprague-Dawley rat at 15 mg/kg, IG measured after 1 hrs; type: ADME, organism-based; conditions: po
Mus musculus [18] = assay: Anti alzheimer activity in scopolamine induced anxiety in ICR mouse assessed as relieved anxiety pretreated with scopolamine at 3 mg/kg, ip for 31 days followed by compound addition at 20 mg/kg, po at day 7 to 31; type: functional, organism-based; conditions: time 25.0 day
[19] = Drug concentration in plasma of Sprague-Dawley rat at 15 mg/kg, IG measured after 2 hrs; type: ADME, organism-based; conditions: po
[20] = Clearance in Sprague-Dawley rat at 15 mg/kg, IG; type: ADME, organism-based; conditions: in vivo, po
BV-2 [21] = assay: Effect on H2O2 induced reactive oxygen species in mouse BV-2 cells assessed as reduction of ROS generation at 20 uM by fluorescence microscopic analysis relative to control; type: functional; parameters: scale not given: the % may be the effect or the level left
Mus musculus [22] = assay: Neuroprotective effect in scopolamine induced cognitively impaired mouse assessed as decrease in neuronal damage in CA1 region by measuring increase in neuronal nuclear antigen level at hippocampus at 20 mg/kg by immunoblot analysis; type: functional, organism-based
[23] = Acute toxicity in mouse assessed as histopathological change in liver at 2000 mg/kg, IG administered as single dose measured after 14 days measured by H and E staining analysis; type: organism-based; conditions: in vivo, po, 336 h, time 14 day
[24] = Ratio of drug concentration in hippocampus to plasma of Sprague-Dawley rat at 15 mg/kg, IG measured after 0.5 hrs; type: ADME, organism-based; conditions: po
Mus musculus [25] = assay: In vivo effect on HO-1 expression in scopolamine induced cognitive impaired mouse assessed as reversal of NRF2 signalling in hippocampus treated at 20 mg/kg by immunofluorescence analysis; type: functional, organism-based
[26] = target: T1, Amyloid-beta precursor protein; assay: Inhibition of amyloid beta (1 to 42) (unknown origin) self aggregation assessed as low density in amyloid fibrils compound addition at 50 uM after fibrilation for 24 hrs
[27] = Metal chelating activity assessed as compound-Mg2+ complex formation by optical shift at 50 uM in PBS buffer 7.4 by UV-vis spectrometric analysis
BV-2 [28] = assay: Effect of amyloid beta (1 to 42) indued apoptosis in mouse BV-2 cells assessed as early apoptotic cells at 10 uM measured by propidium iodide staining based flow cytometric analysis (reference value: 26.12%); type: functional
BV-2 [29] = assay: Effect of amyloid beta (1 to 42) indued apoptosis in mouse BV-2 cells assessed as viable cells at 10 uM measured by propidium iodide staining based flow cytometric analysis (reference value: 61.29%); type: functional; conditions: read-out: Activity
[30] = Metal chelating activity assessed as compound-Fe2+ complex formation by measuring shift at 2:1 at 50 uM in PBS buffer 7.4 by UV-vis spectrometric analysis
BV-2 [31] = assay: Effect on H2O2 induced reactive oxygen species in mouse BV-2 cells assessed as reduction of ROS generation at 10 uM by fluorescence microscopic analysis relative to control; type: functional; parameters: scale not given: the % may be the effect or the level left
Mus musculus [32] = assay: Anti alzheimer activity in scopolamine induced anxiety in ICR mouse assessed as increase in crossing time by measuring escape latency pretreated with scopolamine at 3 mg/kg, ip for 31 days followed by compound addition at 20 mg/kg, po at day 7 to 31 by morris water maze test; type: functional, organism-based; conditions: time 25.0 day
BV-2 [33] = assay: Effect of amyloid beta (1 to 42) indued apoptosis in mouse BV-2 cells assessed as late apoptotic cells at 5 uM measured by propidium iodide staining based flow cytometric analysis (reference value: 6.88%); type: functional
[34] = Half life in Sprague-Dawley rat at 15 mg/kg, IG; type: ADME, organism-based; conditions: in vivo, po
[35] = target: Amyloid-beta precursor protein (Mus musculus) (UniProt P12023); assay: Inhibition of amyloid beta (1 to 42) in mouse BV-2 cells by measuring scavenging effect at 2.5 to 10 uM by ThT fluorescence based immunoblot analysis; type: cell-based; conditions: dose 2.5-10 µM
[36] = Acute toxicity in mouse assessed as change in dietary activity at 2000 mg/kg, IG administered as single dose measured after 14 days; type: organism-based; conditions: in vivo, po, 336 h, time 14 day
Mus musculus [37] = assay: In vivo effect on HO-1 expression in scopolamine induced cognitive impaired mouse assessed as reversal of NRF2 signalling in hippocampus treated at 20 mg/kg by immunoblot analysis; type: functional, organism-based

T1 sequence (P05067 whole entry): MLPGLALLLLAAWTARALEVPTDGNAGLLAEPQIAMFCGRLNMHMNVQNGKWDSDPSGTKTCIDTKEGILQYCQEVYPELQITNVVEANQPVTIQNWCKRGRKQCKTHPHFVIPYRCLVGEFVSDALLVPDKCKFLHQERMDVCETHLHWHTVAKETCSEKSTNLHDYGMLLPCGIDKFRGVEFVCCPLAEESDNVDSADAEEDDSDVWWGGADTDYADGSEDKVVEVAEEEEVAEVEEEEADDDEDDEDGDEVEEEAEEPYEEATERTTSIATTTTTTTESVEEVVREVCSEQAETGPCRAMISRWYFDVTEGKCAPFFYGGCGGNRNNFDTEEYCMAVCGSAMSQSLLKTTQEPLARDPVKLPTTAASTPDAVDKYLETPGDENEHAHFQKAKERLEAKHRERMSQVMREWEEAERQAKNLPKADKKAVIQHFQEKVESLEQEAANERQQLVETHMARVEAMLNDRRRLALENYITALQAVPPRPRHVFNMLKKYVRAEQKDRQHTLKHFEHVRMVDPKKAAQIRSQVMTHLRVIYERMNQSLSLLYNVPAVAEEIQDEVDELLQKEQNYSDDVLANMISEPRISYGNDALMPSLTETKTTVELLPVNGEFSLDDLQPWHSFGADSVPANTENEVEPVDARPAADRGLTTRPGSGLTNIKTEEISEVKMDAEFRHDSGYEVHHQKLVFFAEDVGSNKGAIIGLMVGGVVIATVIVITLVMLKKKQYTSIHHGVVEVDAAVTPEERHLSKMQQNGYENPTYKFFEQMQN
Sequence of Amyloid-beta precursor protein (Mus musculus) (P12023 whole entry): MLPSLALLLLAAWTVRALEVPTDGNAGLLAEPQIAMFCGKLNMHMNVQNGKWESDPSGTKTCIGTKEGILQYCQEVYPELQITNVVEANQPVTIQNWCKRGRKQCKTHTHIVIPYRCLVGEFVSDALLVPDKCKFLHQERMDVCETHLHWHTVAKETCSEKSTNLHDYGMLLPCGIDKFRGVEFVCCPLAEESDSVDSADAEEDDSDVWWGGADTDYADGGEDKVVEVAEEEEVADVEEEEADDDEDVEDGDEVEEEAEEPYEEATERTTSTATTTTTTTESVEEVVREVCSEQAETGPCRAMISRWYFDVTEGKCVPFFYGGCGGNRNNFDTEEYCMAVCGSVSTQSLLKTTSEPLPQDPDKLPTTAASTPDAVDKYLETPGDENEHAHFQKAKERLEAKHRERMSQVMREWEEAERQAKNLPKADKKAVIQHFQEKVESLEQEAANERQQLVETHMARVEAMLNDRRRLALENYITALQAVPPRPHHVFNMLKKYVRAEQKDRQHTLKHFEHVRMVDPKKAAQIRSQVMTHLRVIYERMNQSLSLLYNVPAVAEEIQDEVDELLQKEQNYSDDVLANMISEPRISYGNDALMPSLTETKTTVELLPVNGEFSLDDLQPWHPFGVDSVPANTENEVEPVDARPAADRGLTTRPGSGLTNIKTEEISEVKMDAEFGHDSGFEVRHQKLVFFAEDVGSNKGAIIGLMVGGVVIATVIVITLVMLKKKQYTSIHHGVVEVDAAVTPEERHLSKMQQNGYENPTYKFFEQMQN

Structure (SMILES): O=c1ccoc(/C=C/c2ccc(O)c(O)c2)c1O
- MRT last [1]: 6.36 h
- Activity (Mus musculus [2]): Active
- IC50 [3]: 6.87 µM
- Kp at 0.083 h [4]: 0.07
- Activity (Mus musculus [5]): Active
- Activity (Mus musculus [6]): Active
- Activity (BV-2 [7]): 0.84%
- concentration at 2 h [8]: 6.37 ng/mL
- Activity [9]: Non-Toxic
- Activity (Mus musculus [10]): Active
- viability at 2.5 µM (BV-2 [11]): 76.2%
- Activity (BV-2 [12]): 56.3%
- concentration at 0.5 h [13]: 5.4 ng/mL
- concentration at 0.25 h [14]: 5.32 ng/mL
- Activity (Mus musculus [15]): Active
- Activity (Mus musculus [16]): Active
- Kp at 1 h [17]: 5.04
- Activity (Mus musculus [18]): Active
- concentration at 2 h [19]: 0.99 ng/mL
- CL/F [20]: 481 L/h/kg
- Activity (BV-2 [21]): 45.48%
- Activity (Mus musculus [22]): Active
- Activity [23]: Non-Toxic
- Kp at 0.5 h [24]: 2.27
- Activity (Mus musculus [25]): Active
- Activity [26]: Active
- Activity [27]: inactive
- Activity (BV-2 [28]): 22.1%
- viability at 10 µM (BV-2 [29]): 63.1%
- Activity [30]: Active
- Activity (BV-2 [31]): 34.85%
- Activity (Mus musculus [32]): Active
- Activity (BV-2 [33]): 13.4%
- half-life [34]: 14 h
- inhibition [35]: Active
- Activity [36]: Non-Toxic
- Activity (Mus musculus [37]): Active
